EP0786470A1, “PEPTIDE COMPOUND” (SEIKAGAKU KOGYO KABUSHIKI KAISHA, priority 1993, dated 1997)
Where two headings read alike, the source gives them in different places. Where a SMILES comes first, the peptide text is derived from it. [ ]: non-standard residue; d: D form. The star is where a group is joined. Piv = CC(C)(C)C(=O)*; GABA = NCCCC(=O)O

Assays:
male Wistar rats = experiment: Inhibition of (±) Bay K8644-induced spontaneous behavior and rearing, drug administered to caudate nucleus putamen (Test Example 3); type: in vivo, rat; settings: caudate nucleus putamen administration; for number of spontaneous behavior: induced by (±) Bay K8644 (18.5 µmol/ml), in comparison with the control group (Fig. 5); for inhibition action on number of spontaneous behavior / number of rearing: induced by (±) Bay K8644; for inhibition action on number of spontaneous behavior: compared with PLG (Fig. 5); for number of rearing: compared with PLG (Fig. 6)
From the text: At the same time, the number of rearing was counted. The term rearing as used herein means an action to stand upright solely with hind legs, which is counted by the naked eye.
The number of spontaneous behavior is shown in Fig. 5, and the number of rearing in Fig. 6, both induced by (±) Bay K8644.

Wistar rats [1] = settings: for number of spontaneous behavior: tonsillar nucleus administration, 10 µmol/ml at 2.7 µl/min for 2 minutes, after 30 minutes of methamphetamine 1.0 mg/kg i.p., control about 1,250 counts; for inhibition of the total number of spontaneous behavior observed within 2 hours after administration of methamphetamine: rat, in vivo
Description: (§1) Wistar rats (250 to 300 g) were anesthetized with pentobarbital (50 mg/kg, i.p.) and their parietal regions were shaved off and the head was respectively fixed on a rat brain fixing apparatus. After incising the scalp, a hole of 1 to 1.2 mm was made in the cranial bones using an electric drill, and a stainless steel guide cannula of 1 to 1.2 mm in diameter and 23 mm in length was inserted into the hole and fixed to the cranial bones with dental cement. As the insertion position of the guide cannula, co-ordinates of tonsillar nucleus (A: -1.3 mm, L: 3.4 mm and V: 8.6 mm from bregma) were selected with reference to the brain illustrations of Paxions and Watson. Rats were reared for 1 week after the operation and then used in the test.
(§2) Drug-free physiological saline containing 13% ethanol (vehicle) was used as a control in the same manner.

Wistar rats [2] = settings: for number of spontaneous behavior: caudate nucleus putamen administration
Description: as §1, §2

[3] = after 30 minutes of methamphetamine 1.0 mg/kg i.p.

## CC(C)C[C@H](NC(=O)C(C)(C)C)C(=O)NCCCC(=O)O [PLG, Piv-Leu-GABA, reference compound]
Male Wistar rats
  number of spontaneous behavior: decreased
Wistar rats [1]
  number of spontaneous behavior: about 750 counts
Wistar rats [2]; 10 µmol/ml at 2.7 µl/min for 2 minutes, after 15 minutes of methamphetamine 1.0 mg/kg i.p.
  number of spontaneous behavior: about 650 counts
Wistar rats [2]; [3]
  number of spontaneous behavior: about 600 counts

## CC(C)C[C@H](NC(=O)[C@H](CO)NC(=O)C(C)(C)C)C(=O)NCCCC(=O)O [PSLG, Piv-L-Ser-Leu-GABA] (Piv-Ser-Leu-[GABA]-OH)
Male Wistar rats
  number of spontaneous behavior: decreased
  inhibition action on number of spontaneous behavior: stronger than that of PLG
  number of rearing: definitely strong inhibition effect in comparison with PLG
Wistar rats [1]
  inhibition of the total number of spontaneous behavior observed within 2 hours after administration of methamphetamine: about 25%
  number of spontaneous behavior: about 900 counts
Wistar rats [2]; [3]
  number of spontaneous behavior: about 600 counts

## CC(C)C[C@H](NC(=O)[C@@H](CO)NC(=O)C(C)(C)C)C(=O)NCCCC(=O)O [PDSLG, Piv-D-Ser-Leu-GABA] (Piv-[dS]-Leu-[GABA]-OH)
Male Wistar rats
  number of spontaneous behavior: decreased
  inhibition action on number of spontaneous behavior: stronger than that of PLG
  number of rearing: definitely strong inhibition effect in comparison with PLG
Wistar rats [1]
  inhibition of the total number of spontaneous behavior observed within 2 hours after administration of methamphetamine: about 25%
  number of spontaneous behavior: about 820 counts
Wistar rats [2]; after 75 minutes of methamphetamine 1.0 mg/kg i.p.
  number of spontaneous behavior: about 300 counts
Wistar rats [2]; caudate nucleus putamen versus tonsillar nucleus administration
  site selectivity: stronger action on caudate nucleus putamen
